{
  "source": "patent US9822125B2",
  "about": "“Benzopyran compounds as melanogenesis modifiers and uses thereof” (NEW YORK UNIVERSITY, priority 2011, dated 2017)",
  "test_system": "melan-a cells",
  "experiment": "Melanin assay in cultured murine melanocytes (melan-a)",
  "assay_type": "cell-based",
  "details": "72 hours of incubation",
  "protocol": "The Spectrum Collection library consisting of 2000 drug compounds or natural products represents a source for the identification of compounds useful in the present invention. The library may be screened to identify novel pigmentation inhibitors in cultured murine melanocytes (melan-a). Compounds are dissolved in dimethylsulfoxide (DMSO) to a final concentration of 10 mM. Screening is performed with cultured melanocytes in 24-well plates followed by melanin assay (see below). A minimum change of 50% in melanin formation is established as significant for a pigmentation inhibitor. DMSO may be used as a negative control and the widely used depigmenting agent, hydroquinone, may be used as a positive control on every plate. Primary screening is performed at a final concentration of 1 μM and potential candidates from the primary screening are reconfirmed in duplicate at final concentrations of 1 and 5 μM.\nMelan-a cells are plated at 5×10^4 cells per well in 1 ml of culture media in 24-well plates the day before adding the library compounds. All compounds are added at the indicated final concentrations. Cells are harvested after 72 hours of incubation, and the melanin assay is performed.\nFor further test and mechanism of action studies, the compounds may be purchased from Sigma, MicroSource or other known suppliers. The compounds are dissolved in dimethylsulfoxide (DMSO) to a final concentration of 10 mM, and are tested for their effect on melanin synthesis at the indicated final concentrations.\nFor the primary and secondary screening, cells were harvested and dissolved in 200 μl of 2N NaOH in 20% DMSO at 70° C. A 180-μl aliquot of the resulting solution was measured for absorbance at 490 nm.\nCells are harvested in extraction buffer (1% Triton X-100, 50 mM Tris, 2 mM EDTA, 150 mM NaCl, pH 7.5) containing a complete protease inhibitor cocktail (Roche). The lysates were centrifuged at 14,000 rpm for 10 minutes at 4° C. BCA protein assay kit (Pierce) was used to measure the protein concentrations of the supernatants, and bovine serum albumin was used as a standard. The remaining pellets were incubated with 100 μl ethanol-ether (1:1) for 10 minutes at room temperature. After removing the ethanol-ether, the pellets were dissolved in 200 μl of 2N NaOH in 20% DMSO at 70° C. A 180-μl aliquot of the resulting solution was measured for absorbance at 490 nm. The melanin contents were normalized to the total amount of protein.\nThe compounds, their structures, inhibition data expressed as % of control remaining, are set forth in FIG. 1 and are shown in Table 1, below.",
  "data": [
    {"smiles": "COc1ccc(-c2coc3c4c(c(CC=C(C)C)c(O)c3c2=O)OC(C)(C)C=C4)cc1", "note": "[ID 2, Osajin- 4′methyl ester]", "values": [
      {"measurement": "% of control melanin remaining after treatment @ 1 μM", "result": "99 % of control"},
      {"measurement": "% of control melanin remaining after treatment @ 5 μM", "result": "70 % of control"}
    ]},
    {"smiles": "CC(C)=CCc1c2c(c3occ(-c4ccc(O)cc4)c(=O)c3c1O)C=CC(C)(C)O2", "note": "[ID 1, Osajin]", "values": [
      {"measurement": "% of control melanin remaining after treatment @ 1 μM", "result": "99 % of control"},
      {"measurement": "% of control melanin remaining after treatment @ 5 μM", "result": "87 % of control"}
    ]},
    {"smiles": "COc1ccc(-c2coc3c4c(c(CC=C(C)C)c(O)c3c2=O)OC(C)(C)C=C4)cc1OC", "note": "[ID 4, Pomiferin-3′,4′-dimethyl ether]", "values": [
      {"measurement": "% of control melanin remaining after treatment @ 1 μM", "result": "80 % of control"},
      {"measurement": "% of control melanin remaining after treatment @ 5 μM", "result": "50 % of control"}
    ]},
    {"smiles": "CC(C)=CCc1c2c(c3occ(-c4ccc(O)c(O)c4)c(=O)c3c1O)C=CC(C)(C)O2", "note": "[ID 3, Pomiferin]", "values": [
      {"measurement": "% of control melanin remaining after treatment @ 1 μM", "result": "53 % of control"}
    ]},
    {"smiles": "CC(C)=CCc1c2c(c(O)c3c(=O)c(-c4ccc(O)cc4)coc13)C=CC(C)(C)O2", "note": "[ID 5, Warangalone]", "values": [
      {"measurement": "% of control melanin remaining after treatment @ 1 μM", "result": "100 % of control"},
      {"measurement": "% of control melanin remaining after treatment @ 5 μM", "result": "78 % of control"}
    ]}
  ]
}
